Assay results published in ChEMBL document CHEMBL6078657, “Thiazolidinedione-based structure modification of ergosterol peroxide provides thiazolidinedione-conjugated derivatives as potent agents against breast cancer cells through a PI3K/AKT/mTOR pathway” (Bioorg Med Chem, 2025).
The source made the active and inactive calls. No cut-off for these calls is given here.

Columns and labels:
MCF7 [1] = test: Antiproliferative activity against human MCF7 cells assessed as cell viability measured after 48 hrs incubation by MTT assay; assay type: functional, cell-based; details: MCF7, 48 h
MCF7 [2] = test: Induction of apoptosis in human MCF7 cells assessed as viable cells at 1 uM measured after 48 hrs incubation by Annexin V-FITC/PI double staining assay (reference value: 92.8%); assay type: functional; details: read-out: Activity
[3] = Toxicity in healthy BALB/c mouse assessed as pathological changes in lungs at 40 mg/kg, ip daily for 14 consecutive days by HE staining based assay; assay type: organism-based; details: in vivo, 336 h, time 14 day
[4] = Toxicity in healthy BALB/c mouse assessed as pathological changes in liver at 20 mg/kg, ip daily for 14 consecutive days by HE staining based assay; assay type: organism-based; details: in vivo, 336 h, time 14 day
[5] = Selectivity index, ratio of IC50 for human MCF-10A cells to IC50 for human MCF7 cells; assay type: toxicity; details: MCF-10A cells and MCF7 cells, read-out: Selectivity Index
MCF7 [6] = test: Induction of apoptosis in human MCF7 cells assessed as viable cells at 3 uM measured after 48 hrs incubation by Annexin V-FITC/PI double staining assay (reference value: 92.8%); assay type: functional; details: read-out: Activity
MCF7 [7] = test: Induction of apoptosis in human MCF7 cells assessed as decrease in mitochondrial membrane potential by measuring increase in JC-1 monomer (green fluorescence) at 6 uM incubated for 48 hrs by JC-1 staining based flow cytometry analysis (reference value: 2.96%); assay type: functional; set-up: scale not given: the % may be the effect or the level left
MCF7 [8] = test: Growth inhibition of human MCF7 cells assessed as ruptured membrane and shrunken nucleus at 1 to 6 uM incubated up to 48 hrs by acridine orange/ethidium bromide (AO/EB) staining based assay; assay type: functional, cell-based; details: dose 1-6 µM
[9] = Toxicity in healthy BALB/c mouse assessed as pathological changes in spleen at 20 mg/kg, ip daily for 14 consecutive days by HE staining based assay; assay type: organism-based; details: in vivo, 336 h, time 14 day
MCF7 [10] = test: Induction of apoptosis in human MCF7 cells assessed as necrotic cells at 1 uM measured after 48 hrs incubation by Annexin V-FITC/PI double staining assay (reference value: 0.77%); assay type: functional
[11] = Toxicity in healthy BALB/c mouse assessed as pathological changes in lungs at 20 mg/kg, ip daily for 14 consecutive days by HE staining based assay; assay type: organism-based; details: in vivo, 336 h, time 14 day
[12] = Toxicity in healthy BALB/c mouse assessed as pathological changes in kidney at 40 mg/kg, ip daily for 14 consecutive days by HE staining based assay; assay type: organism-based; details: in vivo
A549 = test: Antiproliferative activity against human A549 cells assessed as cell viability measured after 48 hrs incubation by MTT assay; assay type: functional, cell-based; details: A549, 48 h

CC(C)[C@@H](C)/C=C/[C@@H](C)[C@H]1CC[C@@H]2[C@]1(C)CC[C@H]1[C@]23C=C[C@]2(C[C@@H](OC(=O)NCCNC(=O)CN4C(=O)S/C(=C\c5cccc6ccccc56)C4=O)CC[C@]12C)OO3
IC50 (MCF7 [1]): 3.06 µM | viability at 1 µM (MCF7 [2]): 84.4% | Activity [3]: Non-toxic | Activity [4]: Non-toxic | selectivity ratio [5]: 10.6 | viability at 3 µM (MCF7 [6]): 75.7% | Activity (MCF7 [7]): 49.5% | growth inhibition (GI) (MCF7 [8]): Active | Activity [9]: Non-toxic | Activity (MCF7 [10]): 0.99% | Activity [11]: Non-toxic | Activity [12]: Non-toxic | IC50 (A549): 4.76 µM
